Data taken from ChEMBL document CHEMBL4680295, “Structure guided development of potent piperazine-derived hydroxamic acid inhibitors targeting falcilysin” (Bioorg Med Chem Lett, 2021).

What was measured:
Falcilysin = target: T1, Falcilysin (Plasmodium falciparum (isolate 3D7), UniProt Q76NL8); test: Inhibition of Plasmodium falciparum FLN
T1 sequence (Q76NL8 whole entry): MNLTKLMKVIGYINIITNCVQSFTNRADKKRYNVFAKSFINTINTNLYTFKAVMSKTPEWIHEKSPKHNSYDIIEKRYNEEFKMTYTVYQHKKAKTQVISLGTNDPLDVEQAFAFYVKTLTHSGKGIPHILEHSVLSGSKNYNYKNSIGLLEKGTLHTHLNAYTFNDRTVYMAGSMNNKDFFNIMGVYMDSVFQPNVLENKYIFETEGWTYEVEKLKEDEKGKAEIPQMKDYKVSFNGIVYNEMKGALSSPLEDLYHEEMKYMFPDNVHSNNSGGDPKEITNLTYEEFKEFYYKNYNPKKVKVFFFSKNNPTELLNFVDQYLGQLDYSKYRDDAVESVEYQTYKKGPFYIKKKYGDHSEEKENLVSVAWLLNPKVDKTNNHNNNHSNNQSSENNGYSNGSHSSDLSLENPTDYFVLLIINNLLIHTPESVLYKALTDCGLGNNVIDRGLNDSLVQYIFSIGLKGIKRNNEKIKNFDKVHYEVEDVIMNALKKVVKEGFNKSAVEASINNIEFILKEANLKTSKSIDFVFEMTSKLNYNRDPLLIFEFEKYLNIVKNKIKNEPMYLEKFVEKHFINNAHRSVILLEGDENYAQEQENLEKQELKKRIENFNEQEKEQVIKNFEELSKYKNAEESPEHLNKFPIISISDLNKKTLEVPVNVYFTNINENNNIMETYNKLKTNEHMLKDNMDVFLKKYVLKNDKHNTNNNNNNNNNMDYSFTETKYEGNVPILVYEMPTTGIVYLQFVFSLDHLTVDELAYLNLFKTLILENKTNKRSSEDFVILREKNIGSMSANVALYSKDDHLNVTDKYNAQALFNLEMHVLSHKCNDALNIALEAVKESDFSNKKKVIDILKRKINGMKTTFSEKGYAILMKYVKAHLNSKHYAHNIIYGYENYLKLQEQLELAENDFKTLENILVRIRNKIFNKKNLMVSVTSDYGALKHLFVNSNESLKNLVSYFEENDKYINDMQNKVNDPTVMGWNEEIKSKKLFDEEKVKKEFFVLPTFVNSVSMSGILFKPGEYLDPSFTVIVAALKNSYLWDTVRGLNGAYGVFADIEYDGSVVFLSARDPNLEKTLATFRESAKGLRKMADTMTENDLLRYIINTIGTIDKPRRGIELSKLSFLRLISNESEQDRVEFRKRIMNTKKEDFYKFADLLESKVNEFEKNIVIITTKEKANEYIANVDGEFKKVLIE

Plasmodium falciparum = test: Parasiticidal activity against Plasmodium falciparum 3D7; assay type: functional, organism-based

Compound `O=C(NO)C1CN(C(=O)c2ccc(-c3ccccc3)cc2)CCN1S(=O)(=O)c1ccc(Br)cc1` (centres undefined) has a Ki (Falcilysin) of 3 µM and an EC50 (Plasmodium falciparum) of 2.6 µM.
In the case of `CNC(=O)C1CN(S(=O)(=O)c2ccc(-c3ccccc3)cc2)CCN1S(=O)(=O)c1cccc(CCc2ccccc2)c1` (centres undefined), the Ki (Falcilysin) is reported as 2.5 µM and the EC50 (Plasmodium falciparum) is reported as 2.1 µM.
With `COC(=O)C1CN(S(=O)(=O)c2ccc(-c3ccccc3)cc2)CCN1S(=O)(=O)c1ccc(/C=C/c2ccccc2)cc1` (centres undefined) the Ki (Falcilysin) was 0.6 µM and the EC50 (Plasmodium falciparum) was 0.8 µM.
With `C#Cc1ccc(S(=O)(=O)N2CCN(C(=O)c3ccc(I)cc3)CC2C(=O)NO)cc1` (centres undefined) the Ki (Falcilysin) was > 25 µM and the EC50 (Plasmodium falciparum) was > 25 µM.
`O=C(NO)C1CN(C(=O)c2cccc3ccccc23)CCN1S(=O)(=O)c1ccc(Br)cc1` (centres undefined) gave a Ki (Falcilysin) of 9 µM and an EC50 (Plasmodium falciparum) of 4 µM.
With `O=C(NO)C1CN(Cc2ccc(-c3ccccc3)cc2)CCN1S(=O)(=O)c1ccc(I)cc1` (centres undefined) the Ki (Falcilysin) was 4.9 µM and the EC50 (Plasmodium falciparum) was 5 µM.
`CNC(=O)C1CN(S(=O)(=O)c2ccc(-c3cccnc3OC)cc2)CCN1S(=O)(=O)c1ccc(-c2ccccc2)cc1` (centres undefined) gave a Ki (Falcilysin) of 4 µM and an EC50 (Plasmodium falciparum) of 1.4 µM.
For `O=C(NO)C1CN(C(=O)c2ccc(-c3ccccc3)cc2)CCN1S(=O)(=O)c1ccc(-c2ccccc2)cc1` (centres undefined), the Ki (Falcilysin) was 10 µM and the EC50 (Plasmodium falciparum) was > 25 µM.
Work on `CNC(=O)C1CN(S(=O)(=O)c2ccc(-c3ccccc3)cc2)CCN1S(=O)(=O)c1cccc(-c2cccnc2OC)c1` (centres undefined) yielded a Ki (Falcilysin) of 4 µM and an EC50 (Plasmodium falciparum) of 6 µM.
`O=C(NO)C1CN(S(=O)(=O)c2ccc(-c3ccccc3)cc2)CCN1S(=O)(=O)c1cccc(Br)c1` (centres undefined) showed a Ki (Falcilysin) of 1.4 µM and an EC50 (Plasmodium falciparum) of 1.6 µM.
`COC(=O)C1CN(S(=O)(=O)c2ccc(-c3ccccc3)cc2)CCN1S(=O)(=O)c1ccc(-c2ccccc2)cc1` (centres undefined) showed a Ki (Falcilysin) of 2.5 µM and an EC50 (Plasmodium falciparum) of 2.1 µM.
Work on `O=C(NO)C1CN(C(=O)c2ccc3ccccc3c2)CCN1S(=O)(=O)c1ccc(Br)cc1` (centres undefined) yielded a Ki (Falcilysin) of 3.5 µM and an EC50 (Plasmodium falciparum) of 7 µM.
`O=C(NO)C1CN(C(=O)c2ccc(-c3ccccc3)cc2)CCN1S(=O)(=O)c1ccc(-c2ccsc2)cc1` (centres undefined) showed a Ki (Falcilysin) of 11 µM and an EC50 (Plasmodium falciparum) of 6 µM.
`CNC(=O)C1CN(S(=O)(=O)c2ccc(I)cc2)CCN1S(=O)(=O)c1ccc(-c2ccccc2)cc1` (centres undefined) gave a Ki (Falcilysin) of 2.6 µM and an EC50 (Plasmodium falciparum) of 9 µM.
In the case of `O=C(NO)C1CN(S(=O)(=O)c2ccc(Cc3ccccc3)cc2)CCN1S(=O)(=O)c1ccc(Br)cc1` (centres undefined), the Ki (Falcilysin) is reported as > 25 µM and the EC50 (Plasmodium falciparum) is reported as > 25 µM.
In the case of `O=C(NO)C1CN(S(=O)(=O)c2ccc(-c3ccccc3)cc2)CCN1S(=O)(=O)c1cccc(-c2ccccc2)c1` (centres undefined), the Ki (Falcilysin) is reported as 0.9 µM and the EC50 (Plasmodium falciparum) is reported as 7 µM.
In the case of `O=C(NO)C1CN(C(=O)c2ccc(I)cc2)CCN1S(=O)(=O)c1ccc(Br)cc1` (centres undefined), the Ki (Falcilysin) is reported as > 25 µM and the EC50 (Plasmodium falciparum) is reported as > 25 µM.
In the case of `CNC(=O)C1CN(S(=O)(=O)c2ccc(-c3ccccc3)cc2)CCN1S(=O)(=O)c1cccc(-c2ccc(C(=O)c3ccccc3)cc2)c1` (centres undefined), the Ki (Falcilysin) is reported as 1.7 µM and the EC50 (Plasmodium falciparum) is reported as 0.9 µM.
In the case of `O=C(NO)C1CN(Cc2ccc(-c3ccccc3)cc2)CCN1S(=O)(=O)c1ccc(Br)cc1` (centres undefined), the Ki (Falcilysin) is reported as 5 µM and the EC50 (Plasmodium falciparum) is reported as 10 µM.
Work on `O=C(NO)C1CN(C(=O)c2ccc(-c3ccccc3)cc2)CCN1S(=O)(=O)c1ccc(I)cc1` (centres undefined) yielded a Ki (Falcilysin) of 4 µM and an EC50 (Plasmodium falciparum) of 3 µM.
In the case of `C#Cc1ccc(S(=O)(=O)N2CCN(C(=O)c3ccc(C(=O)c4ccccc4)cc3)CC2C(=O)NO)cc1` (centres undefined), the Ki (Falcilysin) is reported as > 25 µM and the EC50 (Plasmodium falciparum) is reported as 6 µM.
`CNC(=O)C1CN(S(=O)(=O)c2cccc(Br)c2)CCN1S(=O)(=O)c1ccc(-c2ccccc2)cc1` (centres undefined) was tested, and the Ki (Falcilysin) was 1.4 µM and the EC50 (Plasmodium falciparum) was 4.7 µM.
For `C#Cc1ccc(S(=O)(=O)N2CCNCC2C(=O)NO)cc1` (centres undefined), the Ki (Falcilysin) was > 25 µM and the EC50 (Plasmodium falciparum) was > 25 µM.
`COC(=O)C1CN(Cc2ccc(-c3ccccc3)cc2)CCN1S(=O)(=O)c1ccc(Br)cc1` (centres undefined) showed a Ki (Falcilysin) of 4 µM and an EC50 (Plasmodium falciparum) of 1.4 µM.
Work on `O=C(NO)C1CN(S(=O)(=O)c2ccc(/C=C/c3ccccc3)cc2)CCN1S(=O)(=O)c1ccc(-c2ccccc2)cc1` (centres undefined) yielded a Ki (Falcilysin) of 1.1 µM and an EC50 (Plasmodium falciparum) of 16 µM.
`O=C(NO)C1CN(S(=O)(=O)c2ccc(-c3ccccc3)cc2)CCN1S(=O)(=O)c1ccc(-c2ccccc2)cc1` (centres undefined) gave a Ki (Falcilysin) of 0.22 µM and an EC50 (Plasmodium falciparum) of 7 µM.
`CNC(=O)C1CN(S(=O)(=O)c2ccc(-c3ccccc3)cc2)CCN1S(=O)(=O)c1cccc(/C=C/c2ccccc2)c1` (centres undefined) gave a Ki (Falcilysin) of 1 µM and an EC50 (Plasmodium falciparum) of 5 µM.
